Data: patent US20230303491A1, “DONEPEZIL ETHER PALMITATE OR PHARMACEUTICALLY ACCEPTABLE SALT THEREOF” (CHONG KUN DANG PHARMACEUTICAL CORP., priority 2020, published 2023)

Assay: Pharmacokinetic evaluation: donepezil concentration in plasma after intramuscular injection of solution phase compositions
Format: in vivo
Details: SD rats; for release pattern: compared among DEP, DEM, DEPD, DEHD and DES formulations (40 mg/kg as donepezil) or with donepezil
Method: The main ingredients of Table 1 above, castor oil, and benzyl benzoate were mixed according to the components and amounts of Table 2 below, and stirred at room temperature for 0.5 to 3 hours to prepare solution phase compositions.
Four male SD rats with an average weight of 300 g were intramuscularly injected with a dose of 4 mg/kg of donepezil in the formulation of donepezil (D) and 40 mg/kg of donepezil each in the DEP, DEM, DEPD, DEHD, and DES formulations, and the concentrations of donepezil in plasma samples of SD rats were analyzed using LC-MS/MS.

## CCCCCCCCCCCCCCOCC(=O)OC1=C(CC2CCN(Cc3ccccc3)CC2)Cc2cc(OC)c(OC)cc21 [DEP, 2-((1-benzylpiperidin-4-yl)methyl)-5,6-dimethoxy-1H-inden-3-yl 2-(tetradecyloxy) acetate]
D 4 mg/kg, DEP 40 mg/kg as donepezil
  release of drug immediately after administration: without rapid release of drug after administration
  release pattern: most preferred for the sustained-release composition
Listed as donepezil ether palmitate (DEP)
  release pattern: better release pattern than that of donepezil
